Laboratory results from patent US20160289745A1, “NUCLEIC ACID ASSAY FOR DIAGNOSING OR […] PATHOGEN INFECTION IN A BODILY FLUID FROM A SUBJECT TREATED WITH AN ANTI-[…]” (priority 2012, published 2016).

How the values were obtained:
[1] = test system: MTC strain (Mycobacterium tuberculosis); assay: Drug susceptibility testing of the patient's MTC strain; type: cell-based
[2] = test system: Mycobacterium tuberculosis Complex (MTC); settings: human, in vivo

SMILES	drug susceptibility testing result ([1]; MTC strain of patient 21)	drug susceptibility testing result ([1]; MTC strain of patient 23)	analysis of DNA in urine [2]
NNC(=O)c1ccncc1 [Isoniazid]	resistance	resistance	–
Nc1ccc(C(=O)O)c(O)c1 [PAS, para-aminosalicylic acid]	–	–	negative
CCCc1cc(C(N)=S)ccn1 [Prothionamid]	resistance	resistance	–
[H]/N=C(/N)N[C@H]1[C@H](O)[C@@H](O)[C@H](O[C@@H]2O[C@@H](C)[C@](O)(C=O)[C@H]2O[C@@H]2O[C@@H](CO)[C@H](O)[C@@H](O)[C@@H]2NC)[C@@H](N/C(N)=N\[H])[C@@H]1O [Streptomycin]	resistance	resistance	–
